Where “and” joins values, the source holds several entries; their conditions need not be identical. Equal values may be shown once. Read-outs that look alike come from different tables or passages of the source.
Experiments:
[1] = C. S. T. Aun, 1999, cited from earlier work
NMDA receptor = conditions: Ebert et al., 1997; cited from earlier work
Male Rats = conditions: individual rats
Method: • 1) Solution MOR 3 mg/ul (the same Mor. […] 1) • 2) (+) Norketamine 3 mg/ml dose 3 mg/kg inj.
• TFL—intensity 40%, idle activity 5%, cut-off 10 sec.
• TFL—Intensity 40%, idle activity 5%, cut-off 10 sec.
• TFL—Intensity 40%, idle activity 5%, cut-off 10 seconds Solutions:

In the case of `CN[C@]1(c2ccccc2Cl)CCCCC1=O` [S-ketamine], the “potency relative to R-ketamine” value [1] is given as “twice as potent as R-ketamine”.
In the case of `NC1(c2ccccc2Cl)CCCCC1=O` (stereo not drawn) [Norketamine, 2-(2-chlorophenyl)-2-amino-cyclohexanone], the “anesthetic and analgesic potency relative to ketamine” value ([1]; speculated) is listed as “one third that of ketamine” and the “binding to the NMDA receptor relative to S- and R-ketamine” value (NMDA receptor) is listed as “less tightly than either S- or R-ketamine”.
In the case of `CN1CC[C@]23c4c5ccc(O)c4O[C@H]2[C@@H](O)C=C[C@H]3[C@H]1C5` [Morphine, morphine], the “TFL 15 min.” value (Male Rats; Day 1, male rats 5-8, MOR 3 mg/kg + SAL or (+) Norket 3 mg/kg, 15 min after injection, listed as MOR) is reported as 3.24 s and 3.55 s, the “TFL 30 min.” value (Male Rats; Day 1, male rats 5-8, MOR 3 mg/kg + SAL or (+) Norket 3 mg/kg, 30 min after injection, listed as MOR) is reported as 5.72 s and 6.2 s and the “TFL 60 min.” value (Male Rats; Day 1, male rats 5-8, MOR 3 mg/kg + SAL or (+) Norket 3 mg/kg, 60 min after injection, listed as MOR) is reported as 1.93 s and 4.50 s. The “TFL 120 min.” value (Male Rats; Day 1, male rats 5-8, MOR 3 mg/kg + SAL or (+) Norket 3 mg/kg, 120 min after injection, listed as MOR) was 1.61 s and 5.44 s, the “TFL 15 min.” value (Male Rats; Day 2, male rats 1-4, Mor 3 mg/kg & (−) Norketamine 3 mg/kg or saline, 15 min, cut-off 10 sec, listed as Mor) was 2.03 s and 4.89 s and the “TFL 30 min.” value (Male Rats; Day 2, male rats 1-4, Mor 3 mg/kg & (−) Norketamine 3 mg/kg or saline, 30 min, cut-off 10 sec, listed as Mor) was 2.74 s and 7.26 s. The “TFL 60 min.” value (Male Rats; Day 2, male rats 1-4, Mor 3 mg/kg & (−) Norketamine 3 mg/kg or saline, 60 min, cut-off 10 sec, listed as Mor) was 1.94 s and 6.84 s, the “TFL 120 min.” value (Male Rats; Day 2, male rats 1-4, Mor 3 mg/kg & (−) Norketamine 3 mg/kg or saline, 120 min, cut-off 10 sec, listed as Mor) was 1.48 s and 5.37 s and the “TFL 15 min.” value (Male Rats; Day 2, male rats 5-8, 3 mg/kg Mor & 3 mg/kg (+) Norketamine or saline, 15 min, cut-off 10 sec, listed as Mor) was 3.41 s and 3.48 s. The “TFL 30 min.” value (Male Rats; Day 2, male rats 5-8, 3 mg/kg Mor & 3 mg/kg (+) Norketamine or saline, 30 min, cut-off 10 sec, listed as Mor) was 4.09 s and 3.22 s, the “TFL 60 min.” value (Male Rats; Day 2, male rats 5-8, 3 mg/kg Mor & 3 mg/kg (+) Norketamine or saline, 60 min, cut-off 10 sec, listed as Mor) was 4.03 s and 3.01 s and the “TFL 120 min.” value (Male Rats; Day 2, male rats 5-8, 3 mg/kg Mor & 3 mg/kg (+) Norketamine or saline, 120 min, cut-off 10 sec, listed as Mor) was 2.94 s and 2.12 s. For the same compound, the “TFL 15 min.” value (Male Rats; second series, Day 1, male rats 1-4, 3 mg/kg Morphine & saline or 3 mg/kg (−) Norketamine, 15 min, cut-off 10 sec) was 2.92 s and 1.82 s, the “TFL 30 min.” value (Male Rats; second series, Day 1, male rats 1-4, 3 mg/kg Morphine & saline or 3 mg/kg (−) Norketamine, 30 min, cut-off 10 sec) was 3.64 s and 2.36 s and the “TFL 60 min.” value (Male Rats; second series, Day 1, male rats 1-4, 3 mg/kg Morphine & saline or 3 mg/kg (−) Norketamine, 60 min, cut-off 10 sec) was 3.28 s and 3.30 s. The “TFL 120 min.” value (Male Rats; second series, Day 1, male rats 1-4, 3 mg/kg Morphine & saline or 3 mg/kg (−) Norketamine, 120 min, cut-off 10 sec) was 2.74 s and 1.92 s, the “TFL 15 min.” value (Male Rats; second series, Day 1, male rats 5-8, 3 mg/kg Morphine & saline or 3 mg/kg (+) Norketamine, 15 min, cut-off 10 sec) was 2.97 s and 2.88 s and the “TFL 30 min.” value (Male Rats; second series, Day 1, male rats 5-8, 3 mg/kg Morphine & saline or 3 mg/kg (+) Norketamine, 30 min, cut-off 10 sec) was 2.75 s and 3.86 s. For the same compound, the “TFL 60 min.” value (Male Rats; second series, Day 1, male rats 5-8, 3 mg/kg Morphine & saline or 3 mg/kg (+) Norketamine, 60 min, cut-off 10 sec) was 3.51 s and 3.69 s, the “TFL 120 min.” value (Male Rats; second series, Day 1, male rats 5-8, 3 mg/kg Morphine & saline or 3 mg/kg (+) Norketamine, 120 min, cut-off 10 sec) was 2.70 s and 2.17 s and the “TFL 15 min.” value (Male Rats; second series, Day 2, male rats 5-8, 3 mg/kg Morphine & 3 mg/kg (+) Norketamine or saline, 15 min, cut-off 10 seconds) was 2.25 s and 1.56 s. The “TFL 30 min.” value (Male Rats; second series, Day 2, male rats 5-8, 3 mg/kg Morphine & 3 mg/kg (+) Norketamine or saline, 30 min, cut-off 10 seconds) was 2.46 s and 1.97 s, the “TFL 60 min.” value (Male Rats; second series, Day 2, male rats 5-8, 3 mg/kg Morphine & 3 mg/kg (+) Norketamine or saline, 60 min, cut-off 10 seconds) was 3.83 s and 2.08 s and the “TFL 120 min.” value (Male Rats; second series, Day 2, male rats 5-8, 3 mg/kg Morphine & 3 mg/kg (+) Norketamine or saline, 120 min, cut-off 10 seconds) was 2.60 s and 2.24 s.

— patent publication US8710070B2, “Opioid-ketamine and norketamine codrug combinations for pain management” (University of Kentucky Research Foundation, priority 2008, dated 2014)
